Measured values as given in ChEMBL document CHEMBL3526109 (Drug Metab Dispos, 2011).

Legend:
[1] = test system: Liver microsome; assay: Drug level in human liver microsomes treated with brivanib by LC-MS/MS analysis in presence of NADPH; format: ADME
[2] = test system: Plasma; assay: Drug level in human plasma assessed as compound formation treated with [14C]brivanib alaninate at 800 mg, po administered as single dose via gavage measured after 2 hrs by HPLC analysis; format: ADME, organism-based; settings: in vivo
[3] = test system: Plasma; assay: Drug level in Sprague-Dawley rat plasma assessed as compound formation treated with [14C]brivanib alaninate at 100 mg/kg, po administered as single dose via gavage measured after 6 hrs by HPLC analysis; format: ADME, organism-based; settings: in vivo
[4] = test system: Plasma; assay: Drug level in human plasma assessed as compound formation treated with [14C]brivanib alaninate at 800 mg, po administered as single dose via gavage measured after 1 hr by HPLC analysis; format: ADME, organism-based; settings: in vivo
[5] = test system: Plasma; assay: Drug level in human plasma assessed as compound formation treated with [14C]brivanib alaninate at 800 mg, po administered as single dose via gavage measured after 12 hrs by HPLC analysis; format: ADME, organism-based; settings: in vivo
[6] = target: Fibroblast growth factor receptor 1 (Homo sapiens, UniProt P11362); assay: Inhibition of human recombinant FGFR-1
Fibroblast growth factor receptor 1, sequence (P11362 whole entry): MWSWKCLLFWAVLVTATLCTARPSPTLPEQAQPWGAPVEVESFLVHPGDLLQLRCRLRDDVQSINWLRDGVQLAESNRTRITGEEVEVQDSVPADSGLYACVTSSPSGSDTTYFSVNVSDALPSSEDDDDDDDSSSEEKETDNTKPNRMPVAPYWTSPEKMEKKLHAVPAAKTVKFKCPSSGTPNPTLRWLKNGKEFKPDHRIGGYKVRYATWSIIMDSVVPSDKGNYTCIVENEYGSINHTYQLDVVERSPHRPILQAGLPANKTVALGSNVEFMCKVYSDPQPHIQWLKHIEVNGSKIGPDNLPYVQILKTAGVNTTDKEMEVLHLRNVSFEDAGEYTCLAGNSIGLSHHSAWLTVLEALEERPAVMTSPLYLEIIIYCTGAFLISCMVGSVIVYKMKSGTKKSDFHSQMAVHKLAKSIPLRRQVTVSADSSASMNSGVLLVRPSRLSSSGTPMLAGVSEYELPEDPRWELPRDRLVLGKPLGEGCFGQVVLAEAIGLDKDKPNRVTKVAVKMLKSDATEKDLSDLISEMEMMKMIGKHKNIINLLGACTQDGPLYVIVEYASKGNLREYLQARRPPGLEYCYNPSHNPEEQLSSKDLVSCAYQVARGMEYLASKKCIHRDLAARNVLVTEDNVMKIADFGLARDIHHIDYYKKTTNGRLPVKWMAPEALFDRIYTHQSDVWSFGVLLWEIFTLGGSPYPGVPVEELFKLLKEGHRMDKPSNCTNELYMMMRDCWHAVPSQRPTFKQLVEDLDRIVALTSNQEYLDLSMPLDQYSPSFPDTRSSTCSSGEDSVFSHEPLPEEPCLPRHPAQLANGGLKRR

[7] = test system: Plasma; assay: Drug level in Sprague-Dawley rat plasma assessed as compound formation treated with [14C]brivanib alaninate at 100 mg/kg, po administered as single dose via gavage measured after 1 hr by HPLC analysis; format: ADME, organism-based; settings: in vivo
[8] = test system: Plasma; assay: Drug level in cynomolgus monkey plasma assessed as compound formation treated with [14C]brivanib alaninate at 10 mg/kg, po administered as single dose via gavage measured after 1 hr by mass spectrometry; format: ADME, organism-based, Macaca fascicularis; settings: in vivo
[9] = test system: Plasma; assay: Drug level in cynomolgus monkey plasma assessed as compound formation treated with [14C]brivanib alaninate at 10 mg/kg, po administered as single dose via gavage measured after 6 hrs by HPLC analysis; format: ADME, organism-based, Macaca fascicularis; settings: in vivo
[10] = test system: Plasma; assay: Drug level in cynomolgus monkey plasma assessed as compound formation treated with [14C]brivanib alaninate at 10 mg/kg, po administered as single dose via gavage measured after 12 hrs by HPLC analysis; format: ADME, organism-based, Macaca fascicularis; settings: in vivo
[11] = test system: Plasma; assay: Drug level in human plasma assessed as compound formation treated with [14C]brivanib alaninate at 800 mg, po administered as single dose via gavage measured after 8 hrs by HPLC analysis; format: ADME, organism-based; settings: in vivo
[12] = test system: Plasma; assay: Drug level in Sprague-Dawley rat plasma assessed as compound formation treated with [14C]brivanib alaninate at 100 mg/kg, po administered as single dose via gavage measured after 2 hrs by HPLC analysis; format: ADME, organism-based; settings: in vivo
[13] = target: Vascular endothelial growth factor receptor 2 (Homo sapiens, UniProt P35968); assay: Inhibition of human recombinant VEGFR-2
Vascular endothelial growth factor receptor 2, sequence (P35968 whole entry): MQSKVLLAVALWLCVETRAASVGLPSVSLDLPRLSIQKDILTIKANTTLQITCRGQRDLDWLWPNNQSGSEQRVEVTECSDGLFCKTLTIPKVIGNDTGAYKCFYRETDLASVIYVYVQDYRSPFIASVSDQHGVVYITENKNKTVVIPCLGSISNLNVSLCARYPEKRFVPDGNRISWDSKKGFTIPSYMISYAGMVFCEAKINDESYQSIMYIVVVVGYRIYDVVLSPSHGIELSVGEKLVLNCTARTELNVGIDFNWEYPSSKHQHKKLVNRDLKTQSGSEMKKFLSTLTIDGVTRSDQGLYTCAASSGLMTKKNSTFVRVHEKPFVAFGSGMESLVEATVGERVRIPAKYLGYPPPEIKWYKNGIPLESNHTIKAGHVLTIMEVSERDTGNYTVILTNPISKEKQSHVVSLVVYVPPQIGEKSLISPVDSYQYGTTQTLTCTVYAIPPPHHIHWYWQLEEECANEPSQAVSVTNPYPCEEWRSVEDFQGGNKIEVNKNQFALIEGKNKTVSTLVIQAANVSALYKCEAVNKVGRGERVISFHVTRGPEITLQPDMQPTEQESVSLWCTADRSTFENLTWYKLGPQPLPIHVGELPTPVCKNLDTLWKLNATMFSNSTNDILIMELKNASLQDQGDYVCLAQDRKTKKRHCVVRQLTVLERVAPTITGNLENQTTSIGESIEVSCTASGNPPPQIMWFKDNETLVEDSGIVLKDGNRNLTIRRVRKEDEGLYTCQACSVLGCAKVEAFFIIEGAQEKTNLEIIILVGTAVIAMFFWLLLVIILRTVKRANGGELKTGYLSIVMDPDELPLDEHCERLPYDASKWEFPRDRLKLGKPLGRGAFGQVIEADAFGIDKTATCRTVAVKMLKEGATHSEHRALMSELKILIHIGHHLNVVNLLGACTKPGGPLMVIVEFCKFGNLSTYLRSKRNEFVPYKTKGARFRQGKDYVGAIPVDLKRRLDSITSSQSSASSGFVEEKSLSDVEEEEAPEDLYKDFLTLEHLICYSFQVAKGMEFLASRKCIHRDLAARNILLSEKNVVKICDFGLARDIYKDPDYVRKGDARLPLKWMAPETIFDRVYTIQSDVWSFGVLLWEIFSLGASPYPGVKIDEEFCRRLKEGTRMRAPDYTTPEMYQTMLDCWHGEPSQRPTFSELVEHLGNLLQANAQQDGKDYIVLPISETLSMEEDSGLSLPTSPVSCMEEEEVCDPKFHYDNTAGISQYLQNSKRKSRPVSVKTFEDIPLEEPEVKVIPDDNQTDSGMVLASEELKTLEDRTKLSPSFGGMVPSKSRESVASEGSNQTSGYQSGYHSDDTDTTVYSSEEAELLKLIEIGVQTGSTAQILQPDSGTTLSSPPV

[14] = test system: Plasma; assay: Drug level in cynomolgus monkey plasma assessed as compound formation treated with [14C]brivanib alaninate at 10 mg/kg, po administered as single dose via gavage measured after 2 hrs by mass spectrometry; format: ADME, organism-based, Macaca fascicularis; settings: in vivo
[15] = test system: Plasma; assay: Drug level in human plasma assessed as compound formation treated with [14C]brivanib alaninate at 800 mg, po administered as single dose via gavage measured after 4 hrs by HPLC analysis; format: ADME, organism-based; settings: in vivo
[16] = test system: Plasma; assay: Drug level in cynomolgus monkey plasma assessed as compound formation treated with [14C]brivanib alaninate at 10 mg/kg, po administered as single dose via gavage measured after 4 hrs by mass spectrometry; format: ADME, organism-based, Macaca fascicularis; settings: in vivo
[17] = test system: Plasma; assay: Drug level in cynomolgus monkey plasma assessed as compound formation treated with [14C]brivanib alaninate at 10 mg/kg, po administered as single dose via gavage measured after 1 hr by HPLC analysis; format: ADME, organism-based, Macaca fascicularis; settings: in vivo
[18] = Drug excretion in human urine treated with [14C]brivanib alaninate at 800 mg, po administered as single dose […] by HPLC analysis; format: ADME, organism-based; settings: in vivo
[19] = test system: Rattus norvegicus; assay: Drug uptake in Sprague-Dawley rat plasma treated with [14C]brivanib alaninate assessed as AUC (0 to 6 hrs) of total radio activity at 100 mg/kg, po administered as single oral dose by HPLC analysis; format: ADME, organism-based; settings: in vivo
[20] = test system: Homo sapiens; assay: AUC (0 to 12 hrs) human plasma treated with [14C]brivanib alaninate at 800 mg, po administered as single oral dose by HPLC analysis; format: ADME, organism-based; settings: in vivo
[21] = test system: Cynomolgus monkey; assay: Drug uptake in cynomolgus monkey plasma treated with [14C]brivanib alaninate assessed as AUC (0 to 4 hrs) of total radio activity at 10 mg/kg, po administered as single oral dose by HPLC analysis; format: ADME, organism-based, Macaca fascicularis; settings: in vivo
[22] = Drug excretion in Sprague-Dawley rat feces treated with [14C]brivanib alaninate at 100 mg/kg, po administered as single dose via gavage by HPLC analysis; format: ADME, organism-based; settings: in vivo
[23] = Drug excretion in bile duct-cannulated cynomolgus monkey bile treated with [14C]brivanib alaninate at 10 mg/kg, po administered as single dose via gavage by HPLC analysis; format: ADME, organism-based, Macaca fascicularis; settings: in vivo
[24] = Drug level in cynomolgus monkey urine treated with [14C]brivanib alaninate at 10 mg/kg, po administered as single dose via gavage by mass spectrometry; format: ADME, organism-based, Macaca fascicularis; settings: in vivo
[25] = test system: Rattus norvegicus; assay: AUC (0 to 6 hrs) Sprague-Dawley rat plasma treated with [14C]brivanib alaninate at 100 mg/kg, po administered as single oral dose by HPLC analysis; format: ADME, organism-based; settings: in vivo
[26] = test system: Homo sapiens; assay: Drug uptake in human plasma treated with [14C]brivanib alaninate assessed as AUC (0 to 12 hrs) of total radio activity at 800 mg, po administered as single oral dose by HPLC analysis; format: ADME, organism-based; settings: in vivo
[27] = Drug excretion in Sprague-Dawley rat urine treated with [14C]brivanib alaninate at 100 mg/kg, po administered as single dose via gavage by HPLC analysis; format: ADME, organism-based; settings: in vivo
[28] = test system: Cynomolgus monkey; assay: AUC (0 to 4 hrs) cynomolgus monkey plasma treated with [14C]brivanib alaninate at 10 mg/kg, po administered as single oral dose by HPLC analysis; format: ADME, organism-based, Macaca fascicularis; settings: in vivo
[29] = test system: Plasma; assay: Drug level in cynomolgus monkey plasma assessed as compound formation treated with [14C]brivanib alaninate at 10 mg/kg, po administered as single dose via gavage measured after 2 hrs by HPLC analysis; format: ADME, organism-based, Macaca fascicularis; settings: in vivo
[30] = Drug excretion in human feces treated with [14C]brivanib alaninate at 800 mg, po administered as single dose […] by HPLC analysis; format: ADME, organism-based; settings: in vivo
[31] = Drug excretion in cynomolgus monkey feces treated with [14C]brivanib alaninate at 10 mg/kg, po administered as single dose via gavage by HPLC analysis; format: ADME, organism-based, Macaca fascicularis; settings: in vivo
[32] = test system: Plasma; assay: Drug level in cynomolgus monkey plasma assessed as compound formation treated with [14C]brivanib alaninate at 10 mg/kg, po administered as single dose via gavage measured after 4 hrs by HPLC analysis; format: ADME, organism-based, Macaca fascicularis; settings: in vivo
[33] = Drug excretion in bile duct-cannulated rat bile treated with [14C]brivanib alaninate at 100 mg/kg, po administered as single dose via gavage by HPLC analysis; format: ADME, organism-based; settings: in vivo
[34] = test system: Homo sapiens; assay: Cmax in human plasma treated with [14C]brivanib alaninate at 800 mg, po administered as single dose […] by LC-MS/MS analysis; format: ADME, organism-based; settings: in vivo
[35] = test system: Liver microsome; assay: Drug metabolism in human liver microsomes assessed as (R)-1-(4-(4-fluoro-2-(hydroxymethyl)-1H-indol-5-yloxy)-5-methylpyrrolo[1,2-f][1,2,4]triazin-6-yloxy)propan-2-ol formation by LC-MS/MS analysis in presence of NADPH; format: ADME
[36] = test system: Rattus norvegicus; assay: Cmax in Sprague-Dawley rat plasma treated with [14C]brivanib alaninate at 100 mg/kg, po administered as single dose via gavage by LC-MS/MS analysis; format: ADME, organism-based; settings: in vivo
[37] = test system: Rattus norvegicus; assay: AUC (0 to t) in Sprague-Dawley rat plasma treated with [14C]brivanib alaninate at 100 mg/kg, po administered as single dose via gavage by LC-MS/MS analysis; format: ADME, organism-based; settings: in vivo
[38] = test system: Cynomolgus monkey; assay: Tmax in cynomolgus monkey plasma treated with [14C]brivanib alaninate at 10 mg/kg, po administered as single dose via gavage by LC-MS/MS analysis; format: ADME, organism-based, Macaca fascicularis; settings: in vivo
[39] = test system: Rattus norvegicus; assay: Tmax in Sprague-Dawley rat plasma treated with [14C]brivanib alaninate at 100 mg/kg, po administered as single dose via gavage by LC-MS/MS analysis; format: ADME, organism-based; settings: in vivo
[40] = test system: Cynomolgus monkey; assay: Drug uptake in cynomolgus monkey plasma treated with [14C]brivanib alaninate assessed as AUC (0 to 12 hrs) of total radio activity at 10 mg/kg, po administered as single oral dose by HPLC analysis; format: ADME, organism-based, Macaca fascicularis; settings: in vivo
[41] = test system: Homo sapiens; assay: Tmax in human plasma treated with [14C]brivanib alaninate at 800 mg, po administered as single dose […] by LC-MS/MS analysis; format: ADME, organism-based; settings: in vivo
[42] = test system: Cynomolgus monkey; assay: Cmax in cynomolgus monkey plasma treated with [14C]brivanib alaninate at 10 mg/kg, po administered as single dose via gavage by LC-MS/MS analysis; format: ADME, organism-based, Macaca fascicularis; settings: in vivo
[43] = Drug excretion in cynomolgus monkey urine treated with [14C]brivanib alaninate at 10 mg/kg, po administered as single dose via gavage by HPLC analysis; format: ADME, organism-based, Macaca fascicularis; settings: in vivo
[44] = test system: Cynomolgus monkey; assay: AUC (0 to t) in cynomolgus monkey plasma treated with [14C]brivanib alaninate at 10 mg/kg, po administered as single dose via gavage by LC-MS/MS analysis; format: ADME, organism-based, Macaca fascicularis; settings: in vivo
[45] = test system: Homo sapiens; assay: AUC (0 to t) in human plasma treated with [14C]brivanib alaninate at 800 mg, po administered as single dose […] by LC-MS/MS analysis; format: ADME, organism-based; settings: in vivo
[46] = test system: Cynomolgus monkey; assay: AUC (0 to 12 hrs) cynomolgus monkey plasma treated with [14C]brivanib alaninate at 10 mg/kg, po administered as single oral dose by HPLC analysis; format: ADME, organism-based, Macaca fascicularis; settings: in vivo

Structure (SMILES) | Compound recovery [2] | Compound recovery [3] [%] | Compound recovery [4] | Compound recovery [5] | IC50 [6] [nM] | Compound recovery [7] [%] | Compound recovery [9] | Compound recovery [10] | Compound recovery [11] | Compound recovery [12] [%] | IC50 [13] [nM] | Compound recovery [15] | Compound recovery [17] [%] | Compound recovery [18] | AUC metabolite/AUC radiolabel [19] [%] | AUC [20] [ugequiv/l.hr] | Compound recovery [22] [%] | Compound recovery [23] | AUC [25] [ugequiv/l.hr] | AUC metabolite/AUC radiolabel [26] [%] | further results
Cc1c(OC[C@@H](C)O)cn2ncnc(Oc3ccc4[nH]c(CO)cc4c3F)c12 | metabolite_not_detected | 1.1 | metabolite_not_detected | metabolite_not_detected | 760 | 1.5 | metabolite_not_detected | metabolite_not_detected | metabolite_not_detected | 1.2 | 78 | metabolite_not_detected | – | – | – | – | – | – | – | – | Compound recovery [1]: metabolite_detected; Compound recovery [8]: metabolite_detected; Compound recovery [14]: metabolite_detected; Compound recovery [16]: metabolite_detected
Cc1cc2c(F)c(Oc3ncnn4cc(OC[C@@H](C)OS(=O)(=O)O)c(C)c34)ccc2[nH]1 | 2.3% | 1.5 | metabolite_not_detected | 10.8% | 26 | 0.5 | metabolite_not_detected | metabolite_not_detected | 9.8% | 1.3 | 28 | 3.6% | 1.9 | metabolite_not_detected | 1.2 | 3611.4 | 3.5 | 15.2% | 1628.2 | 5.5 | AUC metabolite/AUC radiolabel [21]: 1.1%; Compound recovery [24]: metabolite_detected; Compound recovery [27]: 0.8%; AUC [28]: 755.8 ugequiv/l.hr; Compound recovery [29]: 1%; Compound recovery [30]: 26.2%; Compound recovery [31]: 35.2%; Compound recovery [32]: 1.3%; Compound recovery [33]: 2.1%
Cc1cc2c(F)c(Oc3ncnn4cc(OC[C@@H](C)O)c(C)c34)ccc2[nH]1 [BRIVANIB] | 56.9% | 14.3 | 72.4% | 38% | – | 22 | 60.8% | 71.9% | 46.7% | 15.8 | – | 57.1% | 70.7 | metabolite_not_detected | 17 | 30257.7 | 1.8 | metabolite_not_detected | 23709.8 | 46.1 | Cmax [34]: 6100 ng/mL; Compound recovery [35]: metabolite_detected; Cmax [36]: 6400 ng/mL; AUCt [37]: 35500 ng·h/mL; Tmax [38]: 2 h; Tmax [39]: 1 h; Compound recovery [27]: metabolite_not_detected; AUC metabolite/AUC radiolabel [40]: 61.4%; Tmax [41]: 1 h; Cmax [42]: 6200 ng/mL; Compound recovery [29]: 62.7%; Compound recovery [43]: metabolite_not_detected; Compound recovery [30]: 7.5%; AUCt [44]: 49000 ng·h/mL; Compound recovery [31]: 6.5%; AUCt [45]: 45900 ng·h/mL; Compound recovery [32]: 44.2%; AUC [46]: 42587.2 ugequiv/l.hr; Compound recovery [33]: metabolite_not_detected
